System: KRAS-mutant PDC complex spheroid viability
Assay: Anticancer human tumor 186277-243-T-J2-PDC patient-derived colon adenocarcinoma cell line growth inhibition [KRAS2]
Conditions: for IC50: curve of first compound; for viability, T/C: stronger effect = lower value
Outline: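 KRAS-mutant tumor cells were grown as spheroids with HUVEC endothelial cells and human MSCs as stroma. Targeted agents were tested alone and with KRAS pathway inhibitors. Doses started at or near clinical Cmax, or 10 microM, descending half-log.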

[1] = second compound 0.1 µM, first compound 0.0316 µM
[2] = second compound 0.1 µM, first compound 0.1 µM
[3] = second compound 0.316 µM, first compound 0.0316 µM
[4] = second compound 0.316 µM, first compound 0.1 µM
[5] = second compound 1 µM, first compound 0.0316 µM
[6] = second compound 1 µM, first compound 0.1 µM
[7] = second compound 3.16 µM, first compound 0.0316 µM
[8] = second compound 3.16 µM, first compound 0.1 µM
[9] = second compound 10 µM, first compound 0.0316 µM
[10] = second compound 10 µM, first compound 0.1 µM
[11] = second compound 0.1 µM, first compound 0.000316 µM
[12] = second compound 0.1 µM, first compound 0.001 µM
[13] = second compound 0.1 µM, first compound 0.00316 µM
[14] = second compound 0.1 µM, first compound 0.01 µM
[15] = second compound 0.316 µM, first compound 0.000316 µM
[16] = second compound 0.316 µM, first compound 0.001 µM
[17] = second compound 0.316 µM, first compound 0.00316 µM
[18] = second compound 0.316 µM, first compound 0.01 µM
[19] = second compound 1 µM, first compound 0.000316 µM
[20] = second compound 1 µM, first compound 0.001 µM
[21] = second compound 1 µM, first compound 0.00316 µM
[22] = second compound 1 µM, first compound 0.01 µM
[23] = second compound 3.16 µM, first compound 0.000316 µM
[24] = second compound 3.16 µM, first compound 0.001 µM
[25] = second compound 3.16 µM, first compound 0.00316 µM
[26] = second compound 3.16 µM, first compound 0.01 µM
[27] = second compound 10 µM, first compound 0.000316 µM
[28] = second compound 10 µM, first compound 0.001 µM
[29] = second compound 10 µM, first compound 0.00316 µM
[30] = second compound 10 µM, first compound 0.01 µM
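For viability, T/C in this document: viability read after seven days of compound exposure; 100% = DMSO vehicle-treated spheroids so lower means less viable.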

Row | Compound | IC50 (second compound 0.1 µM) [nM] | IC50 (second compound 0.316 µM) [nM] | IC50 (second compound 1 µM) [nM] | IC50 (second compound 3.16 µM) [nM] | IC50 (second compound 10 µM) [nM] | viability, T/C [1] [%] | viability, T/C [2] [%] | viability, T/C [3] [%] | viability, T/C [4] [%] | viability, T/C [5] [%] | viability, T/C [6] [%] | viability, T/C [7] [%] | viability, T/C [8] [%] | viability, T/C [9] [%] | viability, T/C [10] [%] | viability, T/C [11] [%] | viability, T/C [12] [%] | viability, T/C [13] [%] | viability, T/C [14] [%] | viability, T/C [15] [%] | further results
1 | COc1cc(Nc2ncc3c(n2)-c2ccc(Cl)cc2C(c2c(F)cccc2OC)=NC3)ccc1C(=O)O + CC1OCC2(CCN(c3cnc(Sc4ccnc(N)c4Cl)c(N)n3)CC2)C1N | < 31.6 | < 31.6 | < 31.6 | < 31.6 | < 31.6 | 36 | 32.9 | 30.3 | 29.7 | 22.2 | 22.8 | 17.1 | 18 | 13.7 | 13.9 | – | – | – | – | – | viability, T/C (second compound 0.1 µM, first compound 0.316 µM): 33%; viability, T/C (second compound 0.1 µM, first compound 1 µM): 35.2%; viability, T/C (second compound 0.1 µM, first compound 3.16 µM): 38.8%; viability, T/C (second compound 0.1 µM, first compound 10 µM): 33.8%; viability, T/C (second compound 0.316 µM, first compound 0.316 µM): 24.5%; viability, T/C (second compound 0.316 µM, first compound 1 µM): 27.9%; viability, T/C (second compound 0.316 µM, first compound 3.16 µM): 30.4%; viability, T/C (second compound 0.316 µM, first compound 10 µM): 27.5%; viability, T/C (second compound 1 µM, first compound 0.316 µM): 21.1%; viability, T/C (second compound 1 µM, first compound 1 µM): 22.1%; viability, T/C (second compound 1 µM, first compound 3.16 µM): 22.6%; viability, T/C (second compound 1 µM, first compound 10 µM): 21.7%; viability, T/C (second compound 3.16 µM, first compound 0.316 µM): 15.8%; viability, T/C (second compound 3.16 µM, first compound 1 µM): 15.7%; viability, T/C (second compound 3.16 µM, first compound 3.16 µM): 16.1%; viability, T/C (second compound 3.16 µM, first compound 10 µM): 16.2%; viability, T/C (second compound 10 µM, first compound 0.316 µM): 11.8%; viability, T/C (second compound 10 µM, first compound 1 µM): 11.4%; viability, T/C (second compound 10 µM, first compound 3.16 µM): 12.1%; viability, T/C (second compound 10 µM, first compound 10 µM): 11.9%
2 | CN(C)C/C=C/C(=O)Nc1cc2c(Nc3ccc(F)c(Cl)c3)ncnc2cc1O[C@H]1CCOC1 + COc1cc2nc(C)nc(NC(C)c3cc(N)cc(C(F)(F)F)c3)c2cc1OC1CCOC1 | > 100 | > 100 | > 100 | > 100 | > 100 | 108 | 96.8 | 99.2 | 89.2 | 113 | 105 | 84.4 | 79.3 | 81.4 | 61.4 | 102 | 107 | 112 | 110 | 94.3 | viability, T/C [16]: 105%; viability, T/C [17]: 106%; viability, T/C [18]: 115%; viability, T/C [19]: 96.7%; viability, T/C [20]: 93.8%; viability, T/C [21]: 91%; viability, T/C [22]: 105%; viability, T/C [23]: 93.4%; viability, T/C [24]: 97.9%; viability, T/C [25]: 97.4%; viability, T/C [26]: 100%; viability, T/C [27]: 109%; viability, T/C [28]: 105%; viability, T/C [29]: 114%; viability, T/C [30]: 91.2%
3 | Cn1ncnc1[C@H]1c2n[nH]c(=O)c3cc(F)cc(c23)N[C@@H]1c1ccc(F)cc1 + COc1cc2nc(C)nc(NC(C)c3cc(N)cc(C(F)(F)F)c3)c2cc1OC1CCOC1 | > 100 | > 100 | > 100 | > 100 | 9.92 | 103 | 79.1 | 90.5 | 74.5 | 83.4 | 64.5 | 74.7 | 63.9 | 42.2 | 25 | 98.7 | 107 | 106 | 109 | 108 | viability, T/C [16]: 120%; viability, T/C [17]: 105%; viability, T/C [18]: 89.4%; viability, T/C [19]: 109%; viability, T/C [20]: 112%; viability, T/C [21]: 104%; viability, T/C [22]: 99.2%; viability, T/C [23]: 81.8%; viability, T/C [24]: 116%; viability, T/C [25]: 108%; viability, T/C [26]: 86.3%; viability, T/C [27]: 79.2%; viability, T/C [28]: 68.5%; viability, T/C [29]: 63.6%; viability, T/C [30]: 45.5%

From PubChem BioAssay AID1963875 (Molecular Pharmacology Branch, DTP, NCI, 2024)
